According to PubChem BioAssay (NCI):
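Dose response: 5 concentrations. Exposure: 48 h. Format: 96-well plates. Endpoint: linear interpolation; highest concentration if not reached. Here, GI50 denotes the concentration required for 50% inhibition of growth. TGI denotes the concentration required for complete inhibition of growth.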

Key:
Assay in all cases: DTP human tumour cell line panel, 48 h
786-0 renal = tested on: 786-0 renal
A498 renal = tested on: A498 renal
A549 NSCLC = tested on: A549 NSCLC
BT-549 breast = tested on: BT-549 breast
CAKI-1 renal = tested on: CAKI-1 renal
CCRF-CEM leukemia = tested on: CCRF-CEM leukemia
COLO 205 colon = tested on: COLO 205 colon
DU-145 prostate = tested on: DU-145 prostate
HCC-2998 colon = tested on: HCC-2998 colon
HCT-116 colon = tested on: HCT-116 colon
HCT-15 colon = tested on: HCT-15 colon
HL-60(TB) leukemia = tested on: HL-60(TB) leukemia
HOP-62 NSCLC = tested on: HOP-62 NSCLC
HOP-92 NSCLC = tested on: HOP-92 NSCLC
HS 578T breast = tested on: HS 578T breast
HT29 colon = tested on: HT29 colon
K-562 leukemia = tested on: K-562 leukemia
KM12 colon = tested on: KM12 colon
LOX IMVI melanoma = tested on: LOX IMVI melanoma
M14 melanoma = tested on: M14 melanoma
MCF7 breast = tested on: MCF7 breast
MDA-MB-231 breast = tested on: MDA-MB-231 breast
MDA-MB-435 = tested on: MDA-MB-435
MDA-N = tested on: MDA-N
MOLT-4 leukemia = tested on: MOLT-4 leukemia
NCI-H23 lung = tested on: NCI-H23 lung
NCI-H460 lung = tested on: NCI-H460 lung
NCI/ADR-RES ovarian = tested on: NCI/ADR-RES ovarian
OVCAR-3 ovarian = tested on: OVCAR-3 ovarian
OVCAR-4 ovarian = tested on: OVCAR-4 ovarian
OVCAR-5 ovarian = tested on: OVCAR-5 ovarian
OVCAR-8 ovarian = tested on: OVCAR-8 ovarian
PC-3 prostate = tested on: PC-3 prostate
RPMI-8226 leukemia = tested on: RPMI-8226 leukemia
RXF 393 renal = tested on: RXF 393 renal
SF-268 CNS = tested on: SF-268 CNS
SF-295 CNS = tested on: SF-295 CNS
SF-539 CNS = tested on: SF-539 CNS
SK-MEL-28 melanoma = tested on: SK-MEL-28 melanoma
SK-MEL-5 melanoma = tested on: SK-MEL-5 melanoma
SK-OV-3 ovarian = tested on: SK-OV-3 ovarian
SN12C renal = tested on: SN12C renal
SNB-19 CNS = tested on: SNB-19 CNS
SNB-75 CNS = tested on: SNB-75 CNS
SR leukemia = tested on: SR leukemia
SW-620 colon = tested on: SW-620 colon
T-47D breast = tested on: T-47D breast
TK-10 renal = tested on: TK-10 renal
U251 CNS = tested on: U251 CNS
UACC-257 melanoma = tested on: UACC-257 melanoma
UACC-62 melanoma = tested on: UACC-62 melanoma
UO-31 renal = tested on: UO-31 renal
ACHN renal = tested on: ACHN renal
EKVX NSCLC = tested on: EKVX NSCLC
IGROV1 ovarian = tested on: IGROV1 ovarian
MALME-3M melanoma = tested on: MALME-3M melanoma
NCI-H226 lung = tested on: NCI-H226 lung
NCI-H522 lung = tested on: NCI-H522 lung
SK-MEL-2 melanoma = tested on: SK-MEL-2 melanoma

## c1ccc(C2SCC3=Nc4ccccc4CN32)cc1 (stereo not given)
786-0 renal
  TGI: > 100 µM
A498 renal
  TGI: > 100 µM
A549 NSCLC
  TGI: > 100 µM
BT-549 breast
  TGI: > 100 µM
CAKI-1 renal
  TGI: > 100 µM
CCRF-CEM leukemia
  TGI: > 100 µM
COLO 205 colon
  TGI: > 100 µM
DU-145 prostate
  TGI: > 100 µM
HCC-2998 colon
  TGI: > 100 µM
HCT-116 colon
  TGI: 51.9 µM
HCT-15 colon
  TGI: > 100 µM
HL-60(TB) leukemia
  TGI: 89.9 µM
HOP-62 NSCLC
  TGI: > 100 µM
HOP-92 NSCLC
  TGI: > 100 µM
HS 578T breast
  TGI: > 100 µM
HT29 colon
  TGI: 50.7 µM
K-562 leukemia
  TGI: > 100 µM
KM12 colon
  TGI: > 100 µM
LOX IMVI melanoma
  TGI: > 100 µM
M14 melanoma
  TGI: > 100 µM
MCF7 breast
  TGI: > 100 µM
MDA-MB-231 breast
  TGI: > 100 µM
MDA-MB-435
  TGI: > 100 µM
MDA-N
  TGI: > 100 µM
MOLT-4 leukemia
  TGI: > 100 µM
NCI-H23 lung
  TGI: 62.3 µM
NCI-H460 lung
  TGI: > 100 µM
NCI/ADR-RES ovarian
  TGI: 48 µM
OVCAR-3 ovarian
  TGI: 22.5 µM
OVCAR-4 ovarian
  TGI: > 100 µM
OVCAR-5 ovarian
  TGI: > 100 µM
OVCAR-8 ovarian
  TGI: 57.3 µM
PC-3 prostate
  TGI: > 100 µM
RPMI-8226 leukemia
  TGI: > 100 µM
RXF 393 renal
  TGI: 38.9 µM
SF-268 CNS
  TGI: > 100 µM
SF-295 CNS
  TGI: 70.8 µM
SF-539 CNS
  TGI: 99.2 µM
SK-MEL-28 melanoma
  TGI: > 100 µM
SK-MEL-5 melanoma
  TGI: 32.2 µM
SK-OV-3 ovarian
  TGI: > 100 µM
SN12C renal
  TGI: > 100 µM
SNB-19 CNS
  TGI: 57.8 µM
SNB-75 CNS
  TGI: > 100 µM
SR leukemia
  TGI: > 100 µM
SW-620 colon
  TGI: > 100 µM
T-47D breast
  TGI: > 100 µM
TK-10 renal
  TGI: > 100 µM
U251 CNS
  TGI: > 100 µM
UACC-257 melanoma
  TGI: > 100 µM
UACC-62 melanoma
  TGI: > 100 µM
UO-31 renal
  TGI: > 100 µM

## [Cu+2].[O-]c1ccc2ccccc2c1N=Nc1ccccc1.[O-]c1ccc2ccccc2c1N=Nc1ccccc1
786-0 renal
  GI50: 72.7 µM
  TGI: > 100 µM
A549 NSCLC
  TGI: > 100 µM
ACHN renal
  TGI: > 100 µM
BT-549 breast
  TGI: > 100 µM
CAKI-1 renal
  TGI: > 100 µM
CCRF-CEM leukemia
  TGI: > 100 µM
COLO 205 colon
  TGI: > 100 µM
DU-145 prostate
  TGI: > 100 µM
EKVX NSCLC
  GI50: > 100 µM
  TGI: > 100 µM
HCC-2998 colon
  TGI: > 100 µM
HCT-116 colon
  TGI: > 100 µM
HCT-15 colon
  TGI: > 100 µM
HL-60(TB) leukemia
  TGI: > 100 µM
HOP-62 NSCLC
  TGI: > 100 µM
HOP-92 NSCLC
  TGI: > 100 µM
HS 578T breast
  TGI: > 100 µM
HT29 colon
  TGI: > 100 µM
IGROV1 ovarian
  TGI: > 100 µM
K-562 leukemia
  TGI: > 100 µM
KM12 colon
  GI50: > 100 µM
  TGI: > 100 µM
M14 melanoma
  TGI: > 100 µM
MALME-3M melanoma
  TGI: > 100 µM
MCF7 breast
  TGI: > 100 µM
MDA-MB-231 breast
  TGI: > 100 µM
MDA-MB-435
  TGI: > 100 µM
MDA-N
  TGI: > 100 µM
MOLT-4 leukemia
  TGI: > 100 µM
NCI-H226 lung
  TGI: > 100 µM
NCI-H23 lung
  TGI: > 100 µM
NCI-H460 lung
  TGI: > 100 µM
NCI-H522 lung
  TGI: > 100 µM
NCI/ADR-RES ovarian
  TGI: > 100 µM
OVCAR-3 ovarian
  TGI: > 100 µM
OVCAR-4 ovarian
  TGI: > 100 µM
OVCAR-5 ovarian
  TGI: > 100 µM
OVCAR-8 ovarian
  TGI: > 100 µM
PC-3 prostate
  TGI: > 100 µM
RPMI-8226 leukemia
  TGI: > 100 µM
RXF 393 renal
  TGI: > 100 µM
SF-268 CNS
  GI50: > 100 µM
  TGI: > 100 µM
SF-295 CNS
  GI50: > 100 µM
  TGI: > 100 µM
SF-539 CNS
  TGI: > 100 µM
SK-MEL-2 melanoma
  TGI: > 100 µM
SK-MEL-28 melanoma
  TGI: > 100 µM
SK-MEL-5 melanoma
  TGI: > 100 µM
SK-OV-3 ovarian
  TGI: > 100 µM
SN12C renal
  TGI: > 100 µM
SNB-19 CNS
  TGI: > 100 µM
SNB-75 CNS
  TGI: > 100 µM
SR leukemia
  TGI: > 100 µM
SW-620 colon
  TGI: > 100 µM
T-47D breast
  GI50: > 100 µM
  TGI: > 100 µM
TK-10 renal
  TGI: > 100 µM
U251 CNS
  TGI: > 100 µM
UACC-257 melanoma
  TGI: > 100 µM
UACC-62 melanoma
  TGI: > 100 µM
UO-31 renal
  TGI: > 100 µM
